Test results taken from US20200239530A1, “COMPOUNDS AND METHODS OF MODULATING PROTEIN DEGRADATION” (Vividion Therapeutics, Inc., priority 2017, published 2020).

Experiments:
[1] = molecular target: T1, ANKRD54 Ankyrin repeat domain-containing protein 54 (Homo sapiens, UniProt Q6NXT1); assay: Cysteine liganding, probe competition; assay type: binding
T1 construct: 200 μL of lysate containing 5 mg/ml proteome was treated with 2 μL of 100× compound stock; endogenous in cells
Summary of the method: (§1)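 Steps: sonicate cells in cold PBS; treat 5 mg/ml lysate with compound (25° C, 1 hr); add desthiobiotin iodoacetamide probe from a 10 mM stock (25° C, 1 hr); precipitate, reduce, alkylate, digest with trypsin; capture labelled peptides on streptavidin for analysis.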

[2] = molecular target: T2, BACH1 Transcription regulator protein BACH1 (Homo sapiens, UniProt O14867); assay: Cysteine liganding, probe competition; assay type: binding; details: for Liganded: BACH1 Res# 224, uniprot O14867
T2 construct: Cells were resuspended in cold PBS on ice and sonicated with a probe sonicator to achieve lysis; endogenous in cells
T2 sequence (O14867 1-736): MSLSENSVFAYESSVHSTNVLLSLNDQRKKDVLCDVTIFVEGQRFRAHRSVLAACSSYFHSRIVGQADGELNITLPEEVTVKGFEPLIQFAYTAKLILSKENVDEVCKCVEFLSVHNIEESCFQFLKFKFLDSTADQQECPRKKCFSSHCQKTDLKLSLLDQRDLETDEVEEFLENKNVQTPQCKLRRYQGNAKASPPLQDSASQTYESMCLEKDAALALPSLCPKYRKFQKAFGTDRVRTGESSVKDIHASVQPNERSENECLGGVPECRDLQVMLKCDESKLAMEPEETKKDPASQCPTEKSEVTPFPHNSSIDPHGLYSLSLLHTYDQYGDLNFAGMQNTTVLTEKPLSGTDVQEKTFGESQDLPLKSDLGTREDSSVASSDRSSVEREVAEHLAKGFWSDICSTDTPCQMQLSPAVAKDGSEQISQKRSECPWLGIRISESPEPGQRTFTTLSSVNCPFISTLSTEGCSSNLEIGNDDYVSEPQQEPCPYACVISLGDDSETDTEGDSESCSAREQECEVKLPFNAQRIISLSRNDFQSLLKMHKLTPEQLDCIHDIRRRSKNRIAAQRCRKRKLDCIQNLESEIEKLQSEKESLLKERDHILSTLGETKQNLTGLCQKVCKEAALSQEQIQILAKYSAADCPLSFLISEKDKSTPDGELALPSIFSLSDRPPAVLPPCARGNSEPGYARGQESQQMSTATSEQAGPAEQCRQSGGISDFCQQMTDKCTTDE
Summary of the method: as §1

T1 sequence (Q6NXT1 whole entry, the tested form may be a part): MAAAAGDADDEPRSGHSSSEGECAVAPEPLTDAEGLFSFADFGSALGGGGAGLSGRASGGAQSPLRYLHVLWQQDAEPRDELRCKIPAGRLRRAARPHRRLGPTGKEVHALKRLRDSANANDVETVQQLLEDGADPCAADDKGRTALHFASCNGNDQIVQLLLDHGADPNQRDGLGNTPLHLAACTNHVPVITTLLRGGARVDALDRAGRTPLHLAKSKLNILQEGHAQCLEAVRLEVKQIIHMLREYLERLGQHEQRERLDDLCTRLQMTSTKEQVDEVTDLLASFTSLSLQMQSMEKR

COc1ccc2c(c1)CCCN2C(=O)CCl [KB02]
Liganded ([1]; ANKRD54 Res# 230, uniprot Q6NXT1): YES | Liganded [2]: YES

O=C(CCl)Nc1cc(C(F)(F)F)cc(C(F)(F)F)c1 [KBO3]
100 Max ([1]; uniprot Q6NXT1): 7.02 | 100 ave ([1]; uniprot Q6NXT1): −0.72 | 500 Max ([1]; uniprot Q6NXT1): 45.29 | 500 ave ([1]; uniprot Q6NXT1): 44.21 | Liganded [2]: YES | 100 Max ([2]; uniprot O14867): 53.8 | 100 ave ([2]; uniprot O14867): 53.8 | 500 Max ([2]; uniprot O14867): 85.3 | 500 ave ([2]; uniprot O14867): 85.3
